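Assay format: 96-well plates, 48-hour exposure. TGI is the concentration that stops growth completely.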
How the values were obtained:
Assay in all cases: NCI anticancer screen, dose series, 48 h
[1] = tested on: SK-MEL-28 melanoma
[2] = tested on: RXF 393 renal
[3] = tested on: A498 renal
[4] = tested on: SNB-19 CNS
[5] = tested on: SN12C renal
[6] = tested on: A549 NSCLC
[7] = tested on: M14 melanoma
[8] = tested on: RPMI-8226 leukemia
[9] = tested on: SW-620 colon
[10] = tested on: CAKI-1 renal
[11] = tested on: DMS 273 small cell lung
[12] = tested on: EKVX NSCLC
[13] = tested on: UACC-257 melanoma
[14] = tested on: UO-31 renal
[15] = tested on: COLO 205 colon
[16] = tested on: KM12 colon
[17] = tested on: SF-295 CNS
[18] = tested on: OVCAR-5 ovarian
[19] = tested on: LXFL 529 NSCLC
[20] = tested on: XF 498 CNS
[21] = tested on: SK-MEL-2 melanoma
[22] = tested on: HT29 colon
[23] = tested on: KM20L2 colon
[24] = tested on: HCT-116 colon
[25] = tested on: UACC-62 melanoma
[26] = tested on: NCI-H226 lung
[27] = tested on: K-562 leukemia
[28] = tested on: 786-0 renal
[29] = tested on: ACHN renal
[30] = tested on: HOP-92 NSCLC
[31] = tested on: U251 CNS
[32] = tested on: OVCAR-3 ovarian
[33] = tested on: HL-60(TB) leukemia
[34] = tested on: SF-539 CNS
[35] = tested on: SNB-75 CNS
[36] = tested on: MALME-3M melanoma
[37] = tested on: TK-10 renal
[38] = tested on: HOP-18 NSCLC
[39] = tested on: CCRF-CEM leukemia
[40] = tested on: NCI-H23 lung
[41] = tested on: MOLT-4 leukemia
[42] = tested on: SNB-78 CNS
[43] = tested on: SK-MEL-5 melanoma
[44] = tested on: SR leukemia
[45] = tested on: IGROV1 ovarian
[46] = tested on: SF-268 CNS
[47] = tested on: HOP-62 NSCLC
[48] = tested on: DLD-1 colon
[49] = tested on: OVCAR-4 ovarian
[50] = tested on: NCI-H522 lung
[51] = tested on: OVCAR-8 ovarian
[52] = tested on: NCI-H460 lung
[53] = tested on: HCT-15 colon
[54] = tested on: SK-OV-3 ovarian
[55] = tested on: DMS 114 small cell lung
[56] = tested on: LOX IMVI melanoma
[57] = tested on: HCC-2998 colon
[58] = tested on: M19-MEL melanoma

## Cc1ccc(C(=O)C(C)N)cc1 (stereo unspecified)
[1]
  TGI: > 100 µM
[2]
  TGI: > 100 µM
[3]
  TGI: > 100 µM
[4]
  TGI: > 100 µM
[5]
  TGI: > 100 µM
[6]
  TGI: > 100 µM
[7]
  TGI: > 100 µM
[8]
  TGI: > 100 µM
[9]
  TGI: > 100 µM
[10]
  TGI: > 100 µM
[11]
  TGI: > 100 µM
[12]
  TGI: > 100 µM
[13]
  TGI: > 100 µM
[14]
  TGI: > 100 µM
[15]
  TGI: > 100 µM
[16]
  TGI: > 100 µM
[17]
  TGI: > 100 µM
[18]
  TGI: > 100 µM
[19]
  TGI: > 100 µM
[20]
  TGI: > 100 µM
[21]
  TGI: > 100 µM
[22]
  TGI: > 100 µM
[23]
  TGI: > 100 µM
[24]
  TGI: > 100 µM
[25]
  TGI: > 100 µM
[26]
  TGI: > 100 µM
[27]
  TGI: > 100 µM
[28]
  TGI: > 100 µM
[29]
  TGI: > 100 µM
[30]
  TGI: > 100 µM
[31]
  TGI: > 100 µM
[32]
  TGI: > 100 µM
[33]
  TGI: > 100 µM
[34]
  TGI: > 100 µM
[35]
  TGI: > 100 µM
[36]
  TGI: > 100 µM
[37]
  TGI: > 100 µM
[38]
  TGI: > 100 µM
[39]
  TGI: > 100 µM
[40]
  TGI: > 100 µM
[41]
  TGI: > 100 µM
[42]
  TGI: > 100 µM
[43]
  TGI: > 100 µM
[44]
  TGI: > 100 µM
[45]
  TGI: > 100 µM
[46]
  TGI: > 100 µM
[47]
  TGI: > 100 µM
[48]
  TGI: > 100 µM
[49]
  TGI: > 100 µM
[50]
  TGI: > 100 µM
[51]
  TGI: > 100 µM
[52]
  TGI: > 100 µM
[53]
  TGI: > 100 µM
[54]
  TGI: > 100 µM
[55]
  TGI: > 100 µM
[56]
  TGI: > 100 µM
[57]
  TGI: > 100 µM

## O=C(CCC(=O)Nc1ccc(Cl)cc1)CC(=O)c1ccc(F)cc1
[1]
  TGI: > 100 µM
[4]
  TGI: > 100 µM
[5]
  TGI: > 100 µM
[6]
  TGI: > 100 µM
[7]
  TGI: > 100 µM
[8]
  TGI: > 100 µM
[9]
  TGI: > 100 µM
[10]
  TGI: > 100 µM
[11]
  TGI: > 100 µM
[13]
  TGI: > 100 µM
[14]
  TGI: > 100 µM
[15]
  TGI: > 100 µM
[16]
  TGI: > 100 µM
[17]
  TGI: > 100 µM
[18]
  TGI: > 100 µM
[19]
  TGI: > 100 µM
[20]
  TGI: > 100 µM
[21]
  TGI: > 100 µM
[22]
  TGI: > 100 µM
[23]
  TGI: > 100 µM
[24]
  TGI: > 100 µM
[25]
  TGI: > 100 µM
[26]
  TGI: > 100 µM
[27]
  TGI: > 100 µM
[28]
  TGI: > 100 µM
[29]
  TGI: > 100 µM
[30]
  TGI: > 100 µM
[32]
  TGI: > 100 µM
[33]
  TGI: > 100 µM
[34]
  TGI: > 100 µM
[35]
  TGI: > 100 µM
[36]
  TGI: > 100 µM
[37]
  TGI: > 100 µM
[40]
  TGI: > 100 µM
[41]
  TGI: > 100 µM
[42]
  TGI: > 100 µM
[44]
  TGI: > 100 µM
[45]
  TGI: > 100 µM
[46]
  TGI: > 100 µM
[47]
  TGI: > 100 µM
[48]
  TGI: > 100 µM
[49]
  TGI: > 100 µM
[50]
  TGI: > 100 µM
[51]
  TGI: > 100 µM
[52]
  TGI: > 100 µM
[53]
  TGI: > 100 µM
[54]
  TGI: > 100 µM
[56]
  TGI: > 100 µM
[57]
  TGI: > 100 µM

## N=C(N)SCCc1cn2ccccc2n1
[1]
  TGI: > 100 µM
[4]
  TGI: > 100 µM
[5]
  TGI: > 100 µM
[6]
  TGI: > 100 µM
[7]
  TGI: > 100 µM
[8]
  TGI: > 100 µM
[9]
  TGI: > 100 µM
[10]
  TGI: > 100 µM
[11]
  TGI: > 100 µM
[12]
  TGI: > 100 µM
[13]
  TGI: > 100 µM
[14]
  TGI: > 100 µM
[15]
  TGI: > 100 µM
[16]
  TGI: > 100 µM
[17]
  TGI: > 100 µM
[18]
  TGI: > 100 µM
[20]
  TGI: > 100 µM
[21]
  TGI: > 100 µM
[22]
  TGI: > 100 µM
[24]
  TGI: > 100 µM
[26]
  TGI: > 100 µM
[27]
  TGI: > 100 µM
[28]
  TGI: > 100 µM
[29]
  TGI: > 100 µM
[31]
  TGI: > 100 µM
[32]
  TGI: > 100 µM
[33]
  TGI: > 100 µM
[34]
  TGI: > 100 µM
[35]
  TGI: > 100 µM
[36]
  TGI: > 100 µM
[37]
  TGI: > 100 µM
[38]
  TGI: > 100 µM
[39]
  TGI: > 100 µM
[40]
  TGI: > 100 µM
[41]
  TGI: > 100 µM
[42]
  TGI: > 100 µM
[43]
  TGI: > 100 µM
[44]
  TGI: > 100 µM
[46]
  TGI: > 100 µM
[47]
  TGI: > 100 µM
[48]
  TGI: > 100 µM
[49]
  TGI: > 100 µM
[58]
  TGI: > 100 µM
[50]
  TGI: > 100 µM
[51]
  TGI: > 100 µM
[52]
  TGI: > 100 µM
[53]
  TGI: > 100 µM
[55]
  TGI: > 100 µM
[56]
  TGI: > 100 µM
[57]
  TGI: > 100 µM

## CN(C)CCn1c2ccccc2c2nc3cc4ccccc4cc3nc21
[1]
  TGI: 21.9 µM
[2]
  TGI: 24.4 µM
[3]
  TGI: 8.11 µM
[4]
  TGI: 27.7 µM
[5]
  TGI: 17.8 µM
[6]
  TGI: 16.9 µM
[7]
  TGI: 16.4 µM
[8]
  TGI: 13.2 µM
[9]
  TGI: 17.4 µM
[10]
  TGI: 20 µM
[11]
  TGI: 14.6 µM
[12]
  TGI: 31.8 µM
[14]
  TGI: 18.1 µM
[15]
  TGI: 12.3 µM
[16]
  TGI: 16.8 µM
[17]
  TGI: 17 µM
[19]
  TGI: 17.9 µM
[20]
  TGI: 21.4 µM
[21]
  TGI: 24.8 µM
[22]
  TGI: 15 µM
[23]
  TGI: 15.6 µM
[24]
  TGI: 16.9 µM
[25]
  TGI: 21.1 µM
[26]
  TGI: 34.6 µM
[27]
  TGI: 10.9 µM
[28]
  TGI: 16 µM
[29]
  TGI: 11.1 µM
[31]
  TGI: 19.5 µM
[32]
  TGI: 28.2 µM
[33]
  TGI: 11.1 µM
[36]
  TGI: 25.2 µM
[37]
  TGI: 26.4 µM
[39]
  TGI: 14.7 µM
[40]
  TGI: 24 µM
[41]
  TGI: 4.1 µM
[43]
  TGI: 26.5 µM
[45]
  TGI: 10.7 µM
[46]
  TGI: 6.26 µM
[47]
  TGI: 20.1 µM
[48]
  TGI: 16.5 µM
[49]
  TGI: 23.7 µM
[58]
  TGI: 21 µM
[50]
  TGI: 21.7 µM
[51]
  TGI: 23 µM
[52]
  TGI: 2.48 µM
[53]
  TGI: 18.7 µM
[54]
  TGI: 23.4 µM
[55]
  TGI: 20.7 µM
[56]
  TGI: 15.6 µM
[57]
  TGI: 17.7 µM
